Results on 1 molecule are retold here after patent US12324927B2, “Methods and systems for photodynamic therapy calculations” (THE TRUSTEES OF THE UNIVERSITY OF PENNSYLVANIA, priority 2018, dated 2025).

The conditions of series [1]: as printed in b218; cited from earlier work.
Series [2] relates to radiation induced fibrosarcoma (RIF) tumors. Put plainly: BPD-mediated vascular PDT of RIF tumors: explicit dosimetry and tumor regrowth (cure index). It counts as in vivo, mice. How it is done:
RIF cells were cultured and 30 μl were injected at 1×10^7 cells/ml intradermally over the right shoulders of 6 to 8 weeks old female C3H mice (NCI-Frederick, Frederick, Maryland), as described previously^10-12. Animals were under the care of the University of Pennsylvania Laboratory Animal Resources. All studies were approved by the University of Pennsylvania Institutional Animal Care and Use Committee. Tumors were treated at a size of ˜3 to 5 mm in diameter. Fur within the region of tumor inoculation was clipped prior to injection of cells, and the treatment area was depilated with Nair (Church & Dwight Co., Inc., Ewing, New Jersey) at least 24 h before measurements. Mice were provided a chlorophyll-free (alfalfa-free) rodent diet (Harlan Laboratories Inc., Indianapolis, Indiana) starting at least 10 days prior to treatment to eliminate the fluorescence signal from chlorophyll-breakdown products, which have a similar emission range to the BPD fluorescence spectra used to determine the concentration of BPD in the tumor. During the delivery of PDT, mice were kept under anesthesia on a heat pad at 38° C.
PDT was delivered using an optical fiber with a microlens attachment coupled to a diode laser. A 690 nm laser (B&W Tek Inc., Newark, Delaware) was used for PDT after a 15 min drug-light interval. The in-air fluence rate (ϕair) is defined as the calculated irradiance determined by the laser power divided by the treatment area (1 cm diameter spot size). The in-air fluence was calculated by multiplying the in-air fluence rate by the treatment time. […]
The in vivo tissue oxygen partial pressure pO2 was measured during PDT treatment using a phosphorescence-based […] (OxyLite Pro, Oxford Optronix, Oxford, United Kingdom). […] The ROS concentration ([ROS]) was calculated by multiplying the measured pO2 with the […] solubility in tissue, which is 1.295 μM/mmHg.^5 Measured [ROS]0 and [ROS](t) were used to calculate reacted oxygen species using the macroscopic singlet oxygen model.^14,15 […]
Tumor volumes were measured daily after PDT. […]

Molecules are shown by their SMILES.

Consider `C=Cc1c(C)c2cc3nc(cc4[nH]c(cc5nc(cc1[nH]2)C(C)=C5CCC(=O)O)c(CCC(=O)OC)c4C)[C@@]1(C)C3=CC=C(C(=O)OC)[C@H]1C(=O)OC` [BPD, benzoporphyrin derivative monoacid ring A], for which the β in series [1] is 11.9 µM. Moreover, the “change of BPD concentration before vs after PDT treatment” value in series [2] (in tumor, FIG. 18) is recorded as “not significant changes”. In series [2] (mouse, in vivo), the “[ROS]rx threshold dose smaller than value for conventional BPD-mediated PDT using DLI of 3 hrs” value is recorded as “about 4.3 times”. In addition, in series [2] (vascular BPD-PDT, DLI 15 min), the “threshold dose for [ROS]rx” value is reported as 0.23 mM.
